The structures appear in SMILES notation.

Data on two molecules can be found in paper PMC12593396 (2025).

Experiment [1] relates to FAM–4WJ (DNA, junction) GCCTAGCATGATACTGCTACCG/CGGTAGCAGTACCGTTGGTGGC/GCCACCAACGGCGTCAACTGCC/GGCAGTTGACGTCATGCTAGGC
Nature of the experiment: MST. The conditions noted are these: 100 mM NaCl; 10 mM Na cacodylate; not saturated, highest 100 μM.

The subject of experiment [2] is 3WJ-T6 (DNA, junction) ACTCTTCTCGTTTTTTCGAGAGCGACTTTTTTGTCGCAGAGT
Nature of the experiment: ITC. The conditions noted are these: 100 mM NaCl, 10 mM sodium cacodylate, pH 7.4, 25 °C, at ITC detection limit.

Experiment [3] relates to DS-21 (MST) (DNA, duplex) CCTTCACGCGAACGTAATCCT/AGGATTACGTTCGCGTGAAGG
Nature of the experiment: MST. The conditions noted are these: highest tested 50 μM; authors suggest Kd at best high micromolar.

In experiment [4] the test system is Cy5–3WJ-T3 (DNA, junction) CGGAACGGCACTCGTTTCGAGTGCAGCGTGGTTTCCACGCTCGTTCCG
Nature of the experiment: MST. The note with it: 100 mM NaCl, 10 mM Na cacodylate.

Experiment [5] concerns Y-fork (DNA, junction) CGGTAGCAGTACCGTTGGTGGC/GCCACCAACGGCGTCAACTGCC
Nature of the experiment: PAGE competition. The note with it: competes with 3WJ-FAM; ~22% decrease of 3WJ at 4 equivalents.

In experiment [6] the test system is 4WJ (DNA, junction) GCCTAGCATGATACTGCTACCG/CGGTAGCAGTACCGTTGGTGGC/GCCACCAACGGCGTCAACTGCC/GGCAGTTGACGTCATGCTAGGC
Nature of the experiment: UV melting. The note with it: 100 mM NaCl; 10 mM Na cacodylate; 1 equivalent compound.

Experiment [7] relates to DS-21 (CD) (DNA, duplex) CCTTCACGCGAACGTAATCCT/AGGATTACGTTCGCGTGAAGG
Description: CD. The conditions noted are these: 1 equivalent compound.

The term Kd denotes the equilibrium constant for the complex coming apart. A word on the ΔTm: it is the change in melting temperature against a reference sample. In the case of `[Pt+2].[Pt+2].c1cncc(Oc2ccc(Oc3cccnc3)cc2)c1.c1cncc(Oc2ccc(Oc3cccnc3)cc2)c1.c1cncc(Oc2ccc(Oc3cccnc3)cc2)c1.c1cncc(Oc2ccc(Oc3cccnc3)cc2)c1`, the Kd in experiment [1] was greater than 4 µM; in experiment [2] (0.5% acetonitrile) it was 9.94 ± 4.36 × 10^–9 M; in experiment [4] (0.1% Tween, 25 °C, 20 nM DNA), 1.22 ± 0.22 × 10^–8 M. In addition, the binding entry is listed as “no” in experiment [3], “weak” in experiment [5] and “weak” in experiment [7]. Also, the ΔTm in experiment [6] came to 6.0 ± 1.1 °C.
`C(=Nc1ccc(Cc2ccc(N=Cc3ccccn3)cc2)cc1)c1ccccn1.C(=Nc1ccc(Cc2ccc(N=Cc3ccccn3)cc2)cc1)c1ccccn1.C(=Nc1ccc(Cc2ccc(N=Cc3ccccn3)cc2)cc1)c1ccccn1.[Ni+2].[Ni+2]`: the dissociation constant Kd is reported as 7.17 ± 0.51 × 10^–9 M in experiment [2] and 5.15 ± 0.67 × 10^–10 M in experiment [4] (0.1% Tween-20, 25 °C, 1 nM DNA). Further, the shift in melting temperature (ΔTm) in experiment [6] stood at 8.8 ± 1.0 °C.
